Results as given in article PMC8278649 (SLAS discovery : advancing life sciences R & D, 2020).

Assays:
[1] = target: SCTR (secretin receptor) (Homo sapiens, UniProt P47872); test: cAMP accumulation assay, agonist mode; assay type: cell-based; conditions: CHO-K1, read-out: Emax in cAMP accumulation assays
[2] = target: SCTR-SmBiT (UniProt P47872 23-440); test: cell-based or functional assay
Sequence of SCTR-SmBiT (P47872 23-440): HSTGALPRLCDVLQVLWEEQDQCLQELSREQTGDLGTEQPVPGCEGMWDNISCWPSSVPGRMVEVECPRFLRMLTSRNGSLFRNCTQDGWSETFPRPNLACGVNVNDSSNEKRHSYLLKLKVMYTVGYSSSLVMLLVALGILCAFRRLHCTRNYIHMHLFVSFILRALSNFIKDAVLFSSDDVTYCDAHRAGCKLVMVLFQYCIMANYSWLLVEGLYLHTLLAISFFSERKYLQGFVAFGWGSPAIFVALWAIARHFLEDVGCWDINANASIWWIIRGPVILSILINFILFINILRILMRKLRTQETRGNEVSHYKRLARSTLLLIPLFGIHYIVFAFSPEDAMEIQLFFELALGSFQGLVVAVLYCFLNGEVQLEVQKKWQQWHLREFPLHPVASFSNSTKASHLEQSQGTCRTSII

Sequence of SCTR (secretin receptor) (P47872 23-440): as above

Emax [1]	β-arrestin-2 recruitment (NanoBiT, SCTR-SmBiT with LgBiT-ARRB2), EC50 [2]	Molecule
30%		CC(C)C[C@H](NC(=O)CNC(=O)[C@H](CCC(N)=O)NC(=O)[C@H](CC(C)C)NC(=O)[C@H](CC(C)C)NC(=O)[C@H](CCCNC(=N)N)NC(=O)[C@H](CCC(N)=O)NC(=O)[C@H](CC(C)C)NC(=O)[C@H](CCCNC(=N)N)NC(=O)[C@H](C)NC(=O)CNC(=O)[C@H](CCC(=O)O)NC(=O)[C@H](CCCNC(=N)N)NC(=O)[C@H](CC(C)C)NC(=O)[C@H](CCCNC(=N)N)NC(=O)[C@H](CO)NC(=O)[C@H](CC(C)C)NC(=O)[C@H](CCC(=O)O)NC(=O)[C@H](CO)NC(=O)[C@@H](NC(=O)[C@H](Cc1ccccc1)NC(=O)[C@@H](NC(=O)CNC(=O)[C@@H](N)CC(=O)O)[C@@H](C)O)[C@@H](C)O)C(=O)N[C@H](C(N)=O)C(C)C [Sec(3–27)]
	1300 nM	HSDGTFTSELSRLREGARLQRLL [Sec(1–23)]
